Values of other authors in patent US6399093B1, “Method and composition to treat musculoskeletal disorders” (Advanced Medical Instruments, priority 1999, dated 2002).
Each block holds one compound with its values, some of them ahead of it.

Experiments:
[1] = after oral administration
[2] = oral
[3] = oral diclofenac group

Compound: N[C@H]1C(O)O[C@H](CO)[C@@H](O)[C@@H]1O.O=S(=O)(O)O (stereo partly drawn) [glucosamine sulfate]
Onset of clinical improvement of symptoms [1]: one

Compound: COc1cc2c(c(OC)c1OC)-c1ccc(OC)c(=O)cc1[C@@H](NC(C)=O)CC2 [colchicine, Colchicine]
Patients unable to tolerate an optimal dose because of gastrointestinal side effects [2]: Eighty

Number of GI reactions relative to the topical eltenac group [3]: three
Compound: O=C(O)Cc1ccccc1Nc1c(Cl)cccc1Cl [diclofenac]
